{
  "source": "patent US20250171430A1",
  "about": "“PYRAZOLYL COMPOUNDS AS KV7 CHANNEL ACTIVATORS” (Biohaven Therapeutics Ltd., priority 2022, published 2025)",
  "data": [
    {"target": "T1, Kv7.2/7.3 (Homo sapiens, UniProt O43525+O43526)", "T1 construct": "Kv7.2 tetracycline-induced, Kv7.3 constitutive", "test": "Kv7.2/7.3 Activation Assay (Thallium Flux Assay)", "format": "cell-based", "conditions": "hKV7.2/7.3 cell line; test compound at single concentration of 10 μM; fluorescence at 90 sec normalized to positive control (retigabine, 30 μM)", "in_short": "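Human Kv7.2/7.3 cells with Kv7.2 induced overnight by 10 ng/mL tetracycline were loaded with FluxOR II Green for 1 h at 37 °C. Compounds were tested at 10 μM in 0.1% DMSO/extracellular solution, pH 7.4. Thallium/potassium stimulus was added after a 15 s baseline, and 90 s fluorescence (ex 475/em 530 nm) was normalized to 30 μM retigabine.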", "values": [
      {"smiles": "C[C@@H](C(=O)Nc1nn(C)c(-c2cc(F)cc(F)c2)c1C1CCC1)C1CC(F)(F)C1", "note": "[Compound 267, (R)-N-(4-cyclobutyl-5-(3,5-difluorophenyl)-1-methyl-1H-pyrazol-3-yl)-2-(3,3-difluorocyclobutyl)propanamide]", "Kv7.2/7.3 Activity": "++ (“++” High Activity ≥ 0.7)"},
      {"smiles": "C[C@H](C(=O)Nc1nn(C)c(-c2cc(F)cc(F)c2)c1C1CCC1)C1CC(F)(F)C1", "note": "[Compound 268, (S)-N-(4-cyclobutyl-5-(3,5-difluorophenyl)-1-methyl-1H-pyrazol-3-yl)-2-(3,3-difluorocyclobutyl)propanamide]", "Kv7.2/7.3 Activity": "+ (“+” Moderate Activity 0.15-0.7)"},
      {"smiles": "Cn1nc(NC(=O)OC2CC(F)(F)C2)c(C2CCC2)c1-c1cc(F)cc(F)c1", "note": "[Compound 269, 3,3-difluorocyclobutyl (4-cyclobutyl-5-(3,5-difluorophenyl)-1-methyl-1H-pyrazol-3-yl)carbamate]", "Kv7.2/7.3 Activity": "++ (“++” High Activity ≥ 0.7)"},
      {"smiles": "Cn1nc(NC(=O)NC2CC(F)(F)C2)c(C2CCC2)c1-c1cc(F)cc(F)c1", "note": "[Compound 270, 1-(4-cyclobutyl-5-(3,5-difluorophenyl)-1-methyl-1H-pyrazol-3-yl)-3-(3,3-difluorocyclobutyl)urea]", "Kv7.2/7.3 Activity": "++ (“++” High Activity ≥ 0.7)"},
      {"smiles": "Cc1cccc(-c2c(NC(=O)C3CC(F)(F)C3)nn(C)c2C2CC(F)(F)C2)c1", "note": "[Compound 271, N-(5-(3,3-difluorocyclobutyl)-1-methyl-4-(m-tolyl)-1H-pyrazol-3-yl)-3,3-difluorocyclobutane-1-carboxamide]", "Kv7.2/7.3 Activity": "+ (“+” Moderate Activity 0.15-0.7)"},
      {"smiles": "Cn1nc(NC(=O)C2CC(F)(F)C2)c(C2CCC2)c1-c1ccc(OC(F)F)nc1", "note": "[Compound 272, N-(4-cyclobutyl-5-(6-(difluoromethoxy)pyridin-3-yl)-1-methyl-1H-pyrazol-3-yl)-3,3-difluorocyclobutane-1-carboxamide]", "Kv7.2/7.3 Activity": "+ (“+” Moderate Activity 0.15-0.7)"},
      {"smiles": "Cn1nc(NC(=O)C[C@@H]2CC(F)(F)C2(F)F)c(C2CCC2)c1C1CCC(F)(F)CC1", "note": "[Compound 273, (R)-N-(4-cyclobutyl-5-(4,4-difluorocyclohexyl)-1-methyl-1H-pyrazol-3-yl)-2-(2,2,3,3-tetrafluorocyclobutyl)acetamide]", "Kv7.2/7.3 Activity": "++ (“++” High Activity ≥ 0.7)"},
      {"smiles": "Cn1nc(NC(=O)OC2CC(F)(F)C2)c(C2CCC2)c1C1CC(F)(F)C1", "note": "[Compound 274, 3,3-difluorocyclobutyl (4-cyclobutyl-5-(3,3-difluorocyclobutyl)-1-methyl-1H-pyrazol-3-yl)carbamate]", "Kv7.2/7.3 Activity": "++ (“++” High Activity ≥ 0.7)"},
      {"smiles": "Cn1nc(NC(=O)C2COC2)c(C2CCC2)c1-c1cc(F)c(F)c(F)c1", "note": "[Compound 275, N-(4-cyclobutyl-1-methyl-5-(3,4,5-trifluorophenyl)-1H-pyrazol-3-yl)oxetane-3-carboxamide]", "Kv7.2/7.3 Activity": "− (“−” No Activity < 0.15)"},
      {"smiles": "Cn1nc(NC(=O)C2COC2)c(C2CCC2)c1-c1ccc(Cl)s1", "note": "[Compound 276, N-(5-(5-chlorothiophen-2-yl)-4-cyclobutyl-1-methyl-1H-pyrazol-3-yl)oxetane-3-carboxamide]", "Kv7.2/7.3 Activity": "+ (“+” Moderate Activity 0.15-0.7)"},
      {"smiles": "Cn1nc(NC(=O)NC2CC(F)(F)C2)c(C2CCC2)c1-c1ccc(C(F)(F)F)cc1", "note": "[Compound 277, 1-(4-cyclobutyl-1-methyl-5-(4-(trifluoromethyl)phenyl)-1H-pyrazol-3-yl)-3-(3,3-difluorocyclobutyl)urea]", "Kv7.2/7.3 Activity": "+ (“+” Moderate Activity 0.15-0.7)"},
      {"smiles": "Cn1nc(NC(=O)C2COC2)c(C2CCC2)c1-c1ccc(F)c(F)c1", "note": "[Compound 278, N-(4-cyclobutyl-5-(3,4-difluorophenyl)-1-methyl-1H-pyrazol-3-yl)oxetane-3-carboxamide]", "Kv7.2/7.3 Activity": "− (“−” No Activity < 0.15)"},
      {"smiles": "Cn1nc(NC(=O)OC2CC(F)(F)C2)c(C2CCC2)c1-c1ccc(C(F)(F)F)cc1", "note": "[Compound 279, 3,3-difluorocyclobutyl (4-cyclobutyl-1-methyl-5-(4-(trifluoromethyl)phenyl)-1H-pyrazol-3-yl)carbamate]", "Kv7.2/7.3 Activity": "+ (“+” Moderate Activity 0.15-0.7)"},
      {"smiles": "Cn1nc(NC(=O)OCC(F)F)c(C2CCC2)c1C1COC1", "note": "[Compound 280, 2,2-difluoro-213-ethyl (4-cyclobutyl-1-methyl-5-(oxetan-3-yl)-1H-pyrazol-3-yl)carbamate]", "Kv7.2/7.3 Activity": "− (“−” No Activity < 0.15)"},
      {"smiles": "Cn1nc(NC(=O)OC2CC(F)(F)C2)c(C2CCC2)c1-c1ccc(OC(F)(F)F)cc1", "note": "[Compound 281, 3,3-difluorocyclobutyl (4-cyclobutyl-1-methyl-5-(4-(trifluoromethoxy)phenyl)-1H-pyrazol-3-yl)carbamate]", "Kv7.2/7.3 Activity": "++ (“++” High Activity ≥ 0.7)"},
      {"smiles": "Cn1nc(NC(=O)C2CC(F)(F)C2)c(C2CCC2)c1C1COC1", "note": "[Compound 282, N-(4-cyclobutyl-1-methyl-5-(oxetan-3-yl)-1H-pyrazol-3-yl)-3,3-difluorocyclobutane-1-carboxamide]", "Kv7.2/7.3 Activity": "− (“−” No Activity < 0.15)"},
      {"smiles": "Cn1nc(NC(=O)C[C@@H]2CC(F)(F)C2(F)F)c(C2CCC2)c1-c1ccc(OC(F)F)nc1", "note": "[Compound 283, (R)-N-(4-cyclobutyl-5-(6-(difluoromethoxy)pyridin-3-yl)-1-methyl-1H-pyrazol-3-yl)-2-(2,2,3,3-tetrafluorocyclobutyl)acetamide]", "Kv7.2/7.3 Activity": "++ (“++” High Activity ≥ 0.7)"},
      {"smiles": "Cn1nc(NC(=O)C[C@@H]2CC(F)(F)C2(F)F)c(C2(C)CCC2)c1-c1ccc(F)cc1", "note": "[Compound 284, (R)-N-(5-(4-fluorophenyl)-1-methyl-4-(1-methylcyclobutyl)-1H-pyrazol-3-yl)-2-(2,2,3,3-tetrafluorocyclobutyl)acetamide]", "Kv7.2/7.3 Activity": "++ (“++” High Activity ≥ 0.7)"},
      {"smiles": "Cn1nc(NC(=O)NC2CC(F)(F)C2)c(C2CCC2)c1-c1ccc(OC(F)(F)F)cc1", "note": "[Compound 285, 1-(4-cyclobutyl-1-methyl-5-(4-(trifluoromethoxy)phenyl)-1H-pyrazol-3-yl)-3-(3,3-difluorocyclobutyl)urea]", "Kv7.2/7.3 Activity": "+ (“+” Moderate Activity 0.15-0.7)"},
      {"smiles": "Cn1nc(NC(=O)C2CC(F)(F)C2)c(C2(C)CCC2)c1-c1ccc(F)cc1", "note": "[Compound 286, 3,3-difluoro-N-(5-(4-fluorophenyl)-1-methyl-4-(1-methylcyclobutyl)-1H-pyrazol-3-yl)cyclobutane-1-carboxamide]", "Kv7.2/7.3 Activity": "++ (“++” High Activity ≥ 0.7)"},
      {"smiles": "Cn1nc(NC(=O)OC2CC(F)(F)C2)c(C2CCC2)c1-c1cc(F)c(F)c(F)c1", "note": "[Compound 287, 3,3-difluorocyclobutyl (4-cyclobutyl-1-methyl-5-(3,4,5-trifluorophenyl)-1H-pyrazol-3-yl)carbamate]", "Kv7.2/7.3 Activity": "++ (“++” High Activity ≥ 0.7)"},
      {"smiles": "Cn1nc(NC(=O)NC2CC(F)(F)C2)c(C2CCC2)c1-c1cc(F)c(F)c(F)c1", "note": "[Compound 288, 1-(4-cyclobutyl-1-methyl-5-(3,4,5-trifluorophenyl)-1H-pyrazol-3-yl)-3-(3,3-difluorocyclobutyl)urea]", "Kv7.2/7.3 Activity": "++ (“++” High Activity ≥ 0.7)"},
      {"smiles": "Cn1nc(NC(=O)C2CC(F)(F)C2)c(C2CCC2)c1C1CCC(F)(F)CC1", "note": "[Compound 289, N-(4-cyclobutyl-5-(4,4-difluorocyclohexyl)-1-methyl-1H-pyrazol-3-yl)-3,3-difluorocyclobutane-1-carboxamide]", "Kv7.2/7.3 Activity": "++ (“++” High Activity ≥ 0.7)"}
    ]}
  ]
}
